Data set [1] can be described thus: Hygroscopicity by dynamic vapor sorption (DVS). The class given is physicochemical. The protocol:
Hygroscopicity was assessed using a dynamic vapor sorption technique in which an accurately weighed sample is subjected to progressively changing water vapor pressure while simultaneously recording the weight change. The experiment is conducted isothermally at 25° C.
FIG. 3 provides a moisture sorption isotherm of the tosylate salt of trans-N-ethyl-3-fluoro-3-[3-fluoro-4-(pyrrolidin-1-ylmethyl)phenyl]cyclobutanecarboxamide, with absorption as the (♦) curve and desorption as the (▪) curve, plotting percent change in weight as a function of relative humidity, using the kinetic flow through method (8.1 mg sample, 25° C.).
During the initial drying cycle (25° C., 1% RH), less than 0.1% weight loss was observed, which is consistent with an anhydrous non-hygroscopic form. An approximate 0.06% increase in weight was detected by DVS analysis when a sample was exposed to relative humidities from 5% to 90% at 25° C. The desorption phase mimicked the sorption phase when the relative humidity was decreased to 5% (see FIG. 3). Additionally, the powder x-ray diffraction pattern for the sample after hygroscopicity testing matched the pattern of the sample prior to that testing.

The nature of data set [2]: Aqueous solubility (RP-HPLC after temperature cycling). It is filed as physicochemical. To be noted: for solubility at 25 h: thermodynamic from solid. The protocol: The following information was determined in regard of aqueous solubility. […] These values represent the solubility of the crystalline compound determined via RP-HPLC analysis after subjecting the drug media mixture to a temperature cycling program (40° C. for 8 hours, 15° C. for 5 hours, and 25° C. for 12 hours).

Counter-ions that a name gives are not always drawn. A value given as a limit tells only on which side of the number the result lay.

For the compound `CCNC(=O)[C@H]1C[C@@](F)(c2ccc(CN3CCCC3)c(F)c2)C1` [tosylate salt, (trans)-3-fluoro-3-[3-fluoro-4-(pyrrolidin-1-ylmethyl)phenyl]cyclobutanecarboxylic acid ethylamide tosylate salt], the “weight loss during initial drying cycle” value in data set [1] (25° C., 1% RH) is “less than 0.1%”. Besides, the “increase in weight by DVS analysis” value in data set [1] (relative humidities from 5% to 90% at 25° C.) is reported as ~0.06%. For the same compound, in data set [1] (summary statement), the “hygroscopicity (in words)” value is “only slightly hygroscopic”. Besides, the solubility at 25 h in data set [2] (25 °C, fassif, 0.1M phosphate buffered saline with 0.5 weight percent sodium tauracholate/phosphatidyl choline salts, final pH 6.5, temperature cycling) is > 11 mg/mL; in data set [2] (25 °C, unbuffered water, final pH 3.8, temperature cycling) it was 23.6 mg/mL; in data set [2] (aqueous buffer, 0.1M phosphate buffered saline, final pH 6.5, crystalline compound, temperature cycling 40/15/25° C.), > 10 mg/mL. Further, in data set [2] (summary statement), the “aqueous solubility (in words)” value is “high aqueous solubility”.

Values taken from patent publication US8314139B2, “Toluene sulfonic acid salt of a therapeutic compound and pharmaceutical compositions thereof” (Pfizer Inc., priority 2007, dated 2012).
